{"source": "patent US8691584B2", "about": "“Sperm processing methods” (priority 2003, dated 2014)", "test_system": "Spermatozoa", "assay": "Post-thaw sperm motility under phase contrast microscope (Cryopreservation Example I)", "type": "cell-based, Bovine", "conditions": "Hoechst 33342 added to aliquots in TCA buffer, 20 min at 35° C. or 41° C., cryopreserved, thawed 37° C. 50 seconds; analysis of variance", "description": "Bovine semen was collected, transported, and evaluated as described above. Two test tubes containing 5 ml each of TCA buffer (pH 7.3) were placed in one of two water baths for at least five minutes. One water bath was at a temperature of 35° C. and the other water bath was at 41° C. Spermatozoa at 24° C. were added to each tube so that the final concentration in each tube was 150×10^6 sperm/ml. The two tubes were each divided into two aliquots which were kept in respective water baths. After the sperm had equilibrated with the TCA buffer for five minutes, […] was added to one of 35° C. aliquots and one of the 41° C. aliquots. After addition of the Hoechst 33342, all four aliquots were incubated for 20 minutes in their respective water bath. After incubation, the test tubes were removed from the water baths and left at room temperature (about 25° C.) for five minutes. Then the contents of each test tube were diluted with a TCA extender containing 20% egg yolk and 6% glycerol (v/v) (pH 7.0) to a final concentration of 20×10^6 sperm/ml. The contents of each test tube were then used to fill a 0.5 ml artificial insemination straw. Each of the four straws was placed in a programmable freezer (an IceCube 1810CD freezer from Minitube of America, Wis.). […]"}
{"molecule": "CCOc1ccc(-c2nc3ccc(-c4nc5ccc(N6CCN(C)CC6)cc5[nH]4)cc3[nH]2)cc1", "note": "[Hoechst 33342]", "values": [{"measurement": "effect on post-thaw sperm motility", "value": "no significant effect"}]}
